Results as given in article PMC4198181, “Gold(I) Complexes of 9-Deazahypoxanthine as Selective Antitumor and Anti-Inflammatory Agents” (PLoS ONE, 2014).

Experiments:
[1] = tested on: TNF-α secretion in LPS-stimulated macrophage-like THP-1 cells; assay: LPS-induced TNF-α secretion in THP-1 macrophages (ELISA); type: cell-based, human; details: 300 nM, 1 h pretreatment, 24 h after LPS
Description: (§1) For the determination of biological activity, we used the human monocytic leukaemia cell line THP-1 (ECACC, Salisbury, UK). The cells were cultivated at 37°C in the RPMI 1640 medium supplemented with 2 mM L-glutamine, 10% FBS, 100 U/mL of penicillin and 100 µg/mL of streptomycin in a humidified atmosphere containing 5% CO2. Stabilized cells (3rd–15th passage) were split into microtitration plates to get a concentration of 500 000 cells/mL and the differentiation to macrophages was induced by phorbol myristate acetate (PMA) dissolved in dimethyl sulfoxide (DMSO) at the final concentration of 50 ng/ml, and the cells were incubated for 24 h. In comparison with monocytes, differentiated macrophages tend to adhere to the bottoms of the cultivation plates. For next 24 h the cells were incubated with a fresh complete RPMI medium, i.e. containing antibiotics and FBS, without PMA. The medium was then aspirated, and the cells were washed with PBS and cultivated for next 24 hours in serum-free RPMI 1640 medium. These prepared macrophages were used for the detection of inflammatory response.
(§2) Differentiated macrophages were pretreated with 300 nM solutions of the tested complexes, HLn, AuCl, [AuCl(PPh3)], PPh3 and Auranofin dissolved in DMSO (the final DMSO concentration was 0.1%) and with 0.1% DMSO solution itself (vehicle) for 1 h; the given concentrations of the tested compounds lack the cytotoxic effect (cell viability >94%) based on the results of WST-1 test. The inflammatory response in pretreated macrophages was triggered by the addition of 1.0 µg/mL lipopolysaccharide (LPS) dissolved in water, while the control cells (CTRL) remained without the LPS treatment.
(§3) Macrophages, which were pretreated with the tested compounds (complexes 1–5, HLn, AuCl, [AuCl(PPh3)], PPh3 and Auranofin) for 1 h, were incubated with LPS for next 24 h. After this period, the medium was collected and the concentration of TNF-α, and IL-1β was determined by the Instant ELISA Kit according to the manufactures' manual.
(§4) The statistically significant differences between individual groups during anti- inflammatory testing were evaluated using a one-way ANOVA test for statistical analysis, followed by Tukey's post-hoc test for multiple comparisons. GraphPad Prism 5.02 (GraphPad Software Inc., San Diego, CA, USA) was used to perform the analysis. The results are presented as arithmetic means±S.E. values.

[2] = tested on: IL-1β secretion in LPS-stimulated macrophage-like THP-1 cells; assay: LPS-induced IL-1β secretion in THP-1 macrophages (ELISA); type: cell-based, human; details: 300 nM, 1 h pretreatment, 24 h after LPS
Description: as §1, §2, §3, §4

[3] = tested on: 22Rv1 prostate carcinoma cells; assay: MTT in vitro cytotoxicity, 22Rv1; type: cell-based, human; details: 24 h treatment, read-out: IC50±S.E., 22Rv1
Description: (§5) In vitro cytotoxic activity was determined by the MTT assay in human breast adenocarcinoma (MCF7; ECACC no. 86012803), human osteosarcoma (HOS; ECACC no. 87070202), lung carcinoma (A549; ECACC no. 86012804), malignant melanoma (G361; ECACC no. 88030401), cervix epitheloid carcinoma (HeLa; ECACC no. 93021013), ovarian carcinoma (A2780; ECACC no. 93112519), cisplatin-resistant ovarian carcinoma (A2780R; […] ECACC no 105092802) cancer cell lines, purchased from European Collection of Cell Cultures (ECACC). […] The primary culture of human hepatocytes (HEP220, batch number HEP220819) was obtained from Biopredic International (France). The culture medium was Williams and HAM's F-12 (1∶1) supplemented with penicillin, streptomycin, ascorbic acid, linoleic acid, holo-transferin, ethanolamine, glucagon, insulin, dexamethasone, pyruvate, glucose, glutamine, amphotericin. The medium was enriched for plating with 2% foetal calf serum (v/v). The medium was exchanged for a serum-free medium the day after and the culture was stabilized for additional 24 h. Thereafter, the cells were ready for treatments. […] The MTT assay was performed spectrophotometrically at 540 nm (TECAN, Schoeller Instruments LLC). The cytotoxicity data were expressed as the percentage of viability, where 100% represented the treatments with vehicle (0.1% DMF or 0.1% DMSO). The cytotoxicity data from the cancer cell lines were acquired from three independent experiments (conducted in triplicate) using cells from different passages. The IC50 values were calculated from viability curves. The results are presented as arithmetic means±standard error of the mean (S.E.).

[4] = tested on: A2780R ovarian carcinoma cells resistant to cisplatin; assay: MTT in vitro cytotoxicity, A2780R; type: cell-based, human; details: for IC50: 24 h treatment, MTT, read-out: IC50±S.E., A2780R
Description: as §5

[5] = tested on: HeLa cervix epitheloid carcinoma cells; assay: MTT in vitro cytotoxicity, HeLa; type: cell-based, human; details: 24 h treatment, read-out: IC50±S.E., HeLa
Description: as §5

[6] = tested on: primary culture of human hepatocytes (HEP220); assay: MTT in vitro cytotoxicity, primary human hepatocytes; type: cell-based; details: 24 h treatment, MTT; read-out: IC50±S.E., HEP220 (healthy human hepatocytes)
Description: as §5

[7] = tested on: A549 lung carcinoma cells; assay: MTT in vitro cytotoxicity, A549; type: cell-based, human; details: 24 h treatment, read-out: IC50±S.E., A549
Description: as §5

[8] = tested on: MCF7 breast carcinoma cells; assay: MTT in vitro cytotoxicity, MCF7; type: cell-based, human; details: 24 h treatment, read-out: IC50±S.E., MCF7
Description: as §5

HOS osteosarcoma cells = assay: MTT in vitro cytotoxicity, HOS; type: cell-based, human; details: 24 h treatment, read-out: IC50±S.E., HOS
Description: as §5

[9] = tested on: A2780 ovarian carcinoma cells; assay: MTT in vitro cytotoxicity, A2780; type: cell-based, human; details: 24 h treatment, read-out: IC50±S.E., A2780
Description: as §5

[10] = tested on: G361 malignant melanoma cells; assay: MTT in vitro cytotoxicity, G361; type: cell-based, human; details: 24 h treatment, read-out: IC50±S.E., G361
Description: as §5

[11] = tested on: THP-1 monocytic leukaemia cells; assay: WST-1 in vitro cytotoxicity, THP-1; type: cell-based, human; details: 24 h treatment, WST-1, 0.16–10.00 µM; read-out: IC50±S.E., THP-1
Description: Before the in vitro anti-inflammatory testing, in vitro cytotoxicity on human monocytic leukaemia cells (THP-1, ECACC no. 88081201) was determined using the WST-1 assay. The THP-1 cells (floating monocytes, 500 000 cells/mL) were incubated in 100 µL of the serum-free RPMI 1640 medium and seeded into 96-well plates in triplicate at 37°C. Measurements were taken 24 h after the treatment with the tested compounds dissolved in 0.1% DMSO in the concentration range of 0.16–10.00 µM. Viability was determined by the WST-1 test according to the manufacturer's manual. The amount of the formed formazan (which correlates to the number of metabolically active cells in the culture) was calculated as a percentage of the control cells, which were treated only with 0.1% DMSO and was set-up as 100%. The IC50 values of the tested compounds were calculated from the obtained data. The WST-1 assay was performed spectrophotometrically at 440 nm (FLUOstar Omega, BMG Labtech).
The cytotoxicity data were expressed as the percentage of viability, where 100% represented the treatments with vehicle (0.1% DMF or 0.1% DMSO). The cytotoxicity data from the cancer cell lines were acquired from three independent experiments (conducted in triplicate) using cells from different passages. The IC50 values were calculated from viability curves. The results are presented as arithmetic means±standard error of the mean (S.E.). The significance of the differences between the results was assessed by the ANOVA analysis with p<0.05 considered to be significant (QC Expert 3.2, Statistical software, TriloByte Ltd., Pardubice, Czech Republic).

[12] = tested on: λ-carrageenan-induced hind paw edema; assay: Carrageenan-induced hind paw edema; type: in vivo, Wistar-SPF rats; details: i.p., dose equivalent in gold to 10 mg/kg Auranofin
Description: Wistar-SPF (6–8 weeks male) rats were obtained from AnLab, Ltd. (Prague, Czech Republic). The animals were kept in plexiglass cages at the constant temperature of 22±1°C and relative humidity of 55±5% for at least 1 week before the experiment. They were given food and water ad libitum. All the experimental procedures were performed according to the National Institutes of Health (NIH) Guide for the Care and Use of Laboratory Animals. In addition, all the tests were conducted under the guidelines of the International Association for the Study of Pain [61]. After a one-week adaptation period, male Wistar-SPF rats (200–250 g) were randomly assigned to five groups (n = 7) of the animals in the study. The first, control group, received 25% DMSO (v/v in water, intraperitoneal; i.p.). The next three groups were pretreated with complexes 2, 4 and 5, and involved into the carrageenan-treatment. The fifth group was treated with a non-steroidal anti-inflammatory drug Indomethacin (5 mg/kg), which served as a positive control group (Indomethacin + carrageenan).
The carrageenan-induced hind paw edema model was used for the determination of anti-inflammatory activity. Animals were i.p. pretreated with complexes 2, 4, and 5 (the dosages of the individual complexes were adjusted to contain the same amount of gold as in 10 mg/kg dose of Auranofin), Indomethacin (5 mg/kg), or 25% DMSO (v/v in water) 30 min prior to the injection of 1% λ-carrageenan solution (50 µL) into the plantar side of right hind paws of the rats. The paw volume was measured immediately after the carrageenan injection (this value was set-up as baseline value for the hind paw volume) and during the next 6 h after the administration of the edematogenic agent using a plethysmometer (model 7159, Ugo Basile, Varese, Italy). The degree of swelling was evaluated as a percentage of the change of the volume of the right hind paw after the carrageenan treatment from the baseline volume. A non-steroidal anti-inflammatory drug Indomethacin was used as a positive control and the obtained data were also compared with the previously reported profile of antiedematous activity for Auranofin [38]. After 6 h, the animals were sacrificed and the edematous feet were dissected, the tissue from the plantar parts was extracted, fixed and stained by a standard hematoxylin/eosin (HE) staining for cytological evaluation of polymorphonuclear cells infiltration.
as §4

Row | SMILES | effect on LPS-induced TNF-α secretion [1] | IC50 [3] | IC50 [4] | IC50 [5] | IC50 [6] | IC50 [7] | IC50 [8] | IC50 (HOS osteosarcoma cells) | IC50 [9] | IC50 [10] | IC50 [11] | also measured
1 | CC(C)Oc1ncnc2cc[nH]c12 [HL2, 6-isopropyloxy-9-deazapurine] | stimulate the production |  |  |  |  |  |  |  |  |  |  | 
2 | c1ccc(COc2ncnc3cc[nH]c23)cc1 [HL4, 6-benzyloxy-9-deazapurine] | stimulate the production |  |  |  |  |  |  |  |  |  |  | 
3 | c1ccc(CCOc2ncnc3cc[nH]c23)cc1 [HL5, 6-phenethyloxy-9-deazapurine] | stimulate the production |  |  |  |  |  |  |  |  |  |  | 
4 | c1ccc(P(c2ccccc2)c2ccccc2)cc1 [PPh3, triphenylphosphine] | none of the reference compounds, such as AuCl, HLn, [AuCl(PPh3)] and PPh3, exhibited any expected effect |  |  |  |  |  |  |  |  |  |  | effect on LPS-induced IL-1β secretion [2]: decreased the production of IL-1β by a manner comparable to free ligands; level of IL-1β diminished by [2]: ~32%
5 | [Cl][Au].c1ccc(P(c2ccccc2)c2ccccc2)cc1 [[AuCl(PPh3)], reference compound] | none of the reference compounds, such as AuCl, HLn, [AuCl(PPh3)] and PPh3, exhibited any expected effect |  |  |  |  |  |  |  |  |  |  | 
6 | N.N.[Cl][Pt][Cl] [cisplatin, reference compound] |  | 26.9 ± 1.2 µM | 27 ± 1.5 µM | > 50 µM | > 50 µM | > 50 µM | 17.9 ± 1.2 µM | 20.5 ± 0.1 µM | 11.5 ± 0.5 µM | 5.3 ± 0.2 µM |  | resistance factor (RF), IC50(A2780R)/IC50(A2780) ([4]; ratio resistant/sensitive cells): 2.4
7 | CCOc1ncnc2cc[n]([Au])c12.c1ccc(P(c2ccccc2)c2ccccc2)cc1 [complex 1] |  | 3.5 ± 0.1 µM | 5.2 ± 0.3 µM | 22 ± 0.6 µM | 24 ± 1.9 µM | 20.7 ± 0.1 µM | 3.1 ± 0.2 µM | 3.3 ± 0.1 µM | 4.8 ± 0.1 µM | 3.5 ± 0.2 µM | 0.8 ± 0.1 µM | level of IL-1β diminished by [2]: 32%
8 | [Au][n]1ccc2ncnc(OCC3CCCO3)c21.c1ccc(P(c2ccccc2)c2ccccc2)cc1 [complex 3] |  | 21 ± 0.7 µM | 5.3 ± 0.4 µM | 20.7 ± 0.2 µM | 24.1 ± 2.4 µM | 21.4 ± 0.2 µM | 2.2 ± 0.2 µM | 4 ± 0.6 µM | 4.6 ± 0.3 µM | 3.4 ± 0.2 µM | 1 ± 0.1 µM | 
9 | [Au][n]1ccc2ncnc(OCc3ccccc3)c21.c1ccc(P(c2ccccc2)c2ccccc2)cc1 [complex 4] |  | 3.5 ± 0.2 µM | 5.1 ± 0.3 µM | 14.3 ± 0.2 µM | 23.7 ± 2.1 µM | > 20 µM | 4 ± 0.9 µM | 1.8 ± 0.3 µM | 4.6 ± 0.2 µM | 3.5 ± 0.2 µM | 1.7 ± 0.1 µM | overall antiedematous / anti-inflammatory activity [12]: significant anti-inflammatory effects; antiedematous activity profile up to 180 min after carrageenan ([12]; 30 min before carrageenan): very similar pharmacological profiles of complexes 2 and 4 with the reference drug Indomethacin
